As usually defined, the inhibition is the relative decrease from the control value, in per cent. One may read the IC50 as the concentration needed to halve the response being measured. In general, Cmax refers to the peak of the concentration-time curve.

The target of data set [1] is T1, Neuropeptide Y receptor type 5 (Homo sapiens) (UniProt Q15761).
T1 sequence (whole entry): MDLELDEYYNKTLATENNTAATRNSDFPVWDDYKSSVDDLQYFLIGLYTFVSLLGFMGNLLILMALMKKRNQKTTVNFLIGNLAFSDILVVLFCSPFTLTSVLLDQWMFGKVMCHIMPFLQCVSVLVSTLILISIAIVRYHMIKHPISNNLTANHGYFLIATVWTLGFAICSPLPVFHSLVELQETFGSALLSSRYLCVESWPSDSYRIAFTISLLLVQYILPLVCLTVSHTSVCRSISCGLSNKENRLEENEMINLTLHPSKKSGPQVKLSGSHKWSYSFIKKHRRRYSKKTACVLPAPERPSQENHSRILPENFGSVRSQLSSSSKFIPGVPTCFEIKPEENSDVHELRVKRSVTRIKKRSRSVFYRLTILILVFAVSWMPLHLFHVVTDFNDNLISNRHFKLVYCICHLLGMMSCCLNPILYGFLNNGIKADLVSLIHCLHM
Nature of the data set: Tested for the inhibition of [125I]PYY binding to HEK 293 cells stably expressed with human neuropeptide NPY Y5 receptor at a concentration of 10e-7 M. The class given is cell-based. Conditions: HEK293.

Data set [2] addresses T2, Neuropeptide Y receptor type 5 (Homo sapiens, UniProt Q15761).
T2 sequence (Q15761 whole entry): T1 sequence (whole entry)
In words: Tested for the inhibition of [125I]PYY binding to HEK 293 cells stably expressed with human neuropeptide NPY Y5 receptor. The format is cell-based, HEK293.

Data set [3] deals with T1, Neuropeptide Y receptor type 5 (Homo sapiens). Nature of the data set: Tested for the inhibition of [125I]PYY binding to HEK 293 cells stably expressed with human neuropeptide NPY Y5 receptor at a concentration of 10e-8 M. To be noted: HEK293. The class given is cell-based.
Data set [4] has the same target. Nature of the data set: (§1) Tested for the inhibition of [125I]PYY binding to HEK 293 cells stably expressed with human neuropeptide NPY Y5 receptor at a concentration of 10e-6 M. The class given is cell-based. To be noted: HEK293.
Data set [5] has the same target. Nature of the data set: Tested for the inhibition of [125I]PYY binding to HEK 293 cells stably expressed with human neuropeptide NPY Y5 receptor at a concentration of 10e-9 M. The class given is cell-based. Conditions: HEK293.
In data set [6] the target is T2, Neuropeptide Y receptor type 5. Nature of the data set: Inhibitory concentration of total specific binding of [125I]- -PYY to HEK 293 cells transfected with Human NPY-Y5 cDNA (compound prepared by manual synthesis technique). The format is cell-based, HEK293.
For data set [7] the target is unchanged. In words: Inhibitory concentration of total specific binding of [125I]- -PYY to HEK 293 cells transfected with the Human NPY-Y5 cDNA (compound prepared by parallel synthesis technique). The class given is cell-based, HEK293.
Data set [8] can be described thus: Plasma concentration after oral administration of 100 mg/kg to rats. More on the design: dose 100 mg/kg, route oral. To be noted: rat. The class given is ADME, organism-based.
In data set [9] the target is T2, Neuropeptide Y receptor type 5. The description is as §1. The format is cell-based, HEK293.

For `COCCNC(=O)C1CCN(C(=O)Cn2c(=O)sc3ccc(Cl)cc32)CC1`, the inhibition in [1] is 14.5%.
`O=C(Nc1ccc(Cl)c2ccccc12)C1CCN(C(=O)Cn2c(=O)sc3ccc(Cl)cc32)CC1` [FR-236478] yielded an IC50 in data set [2] of 0.23 nM.
On to `Cc1cccc(O)c1NC(=O)C1CCN(C(=O)Cn2c(=O)sc3ccc(Cl)cc32)CC1`, for which the inhibition in [3] is -5.3%; in data set [4], 88.8%; in data set [1] it was 67.8%.
Take `O=C(Cn1c(=O)sc2ccc(Cl)cc21)N1CCC(C(=O)N2CCc3ccccc3C2)CC1`: the values for the inhibition in data set [4] and in data set [1] were 77.2% and 15.6%, respectively.
Regarding `O=C(Cn1c(=O)sc2ccc(Cl)cc21)N1CCC(C(=O)N2CCCc3ccccc32)CC1`, the inhibition in data set [5] was -4.5%; in data set [3], -3.5%; in data set [4], 51.4%; in [1] it was 59.8%.
Consider `CCCCCCCCCCNC(=O)C1CCN(C(=O)Cn2c(=O)sc3ccc(Cl)cc32)CC1`, for which the IC50 in data set [6] turned out to be 1.3 nM; in data set [7], 2.6 nM. The inhibition in data set [3] was determined as 89.6%; in data set [1] it was 106%.
In the case of `CN(CCc1ccccn1)C(=O)C1CCN(C(=O)Cn2c(=O)sc3ccc(Cl)cc32)CC1`, the inhibition in data set [4] was 87.9%; in data set [1], -3.9%.
Turning to `O=C(Nc1ccc(F)c(C(F)(F)F)c1)C1CCN(C(=O)Cn2c(=O)sc3ccc(Cl)cc32)CC1`, the inhibition worked out at 52.6% in [5], 93.2% in data set [3], 104% in [4] and 97.7% in data set [1]. Further, the IC50 in [6] is 0.59 nM; in data set [7], 0.7 nM.
With `COc1ccc(NC(=O)C2CCN(C(=O)Cn3c(=O)sc4ccc(Cl)cc43)CC2)cn1`, the inhibition in data set [5] is 29.9%; in data set [3], 70.3%; in [4] it was 94%; in data set [1], 88.5%. Also, the figures for the IC50 in data set [6] and in [7] were 2.3 nM and 2.6 nM, respectively.
As for `O=C(Nc1ccccc1)C1CCN(C(=O)Cn2c(=O)sc3ccc(Cl)cc32)CC1` [FR-235656], the IC50 in data set [2] was found to be 4.4 nM.
Consider `O=C(c1ccccc1)c1cccc(NC(=O)C2CCN(C(=O)Cn3c(=O)sc4ccc(Cl)cc43)CC2)c1`, for which the inhibition in data set [5] was 45.3%; in data set [3] it was 80.5%; in [4] it was 102%; in data set [1] it was 101%. Besides, the results for the IC50 in [6] and in [7] were 0.89 nM and 1.4 nM, respectively.
On to `O=C(Cn1c(=O)sc2ccc(Cl)cc21)N1CCC(C(=O)N2CCc3ccccc32)CC1`, for which the inhibition in [3] and in [4] was 43.1% each time.
Consider `COc1ccc(CNC(=O)C2CCN(C(=O)Cn3c(=O)sc4ccc(Cl)cc43)CC2)cc1`, for which the inhibition came to 11.5% in data set [5], 61.6% in data set [3], 98% in data set [4] and 105% in [1]. Moreover, the IC50 in [6] amounted to 2.3 nM; in [7], 1.4 nM.
Compound `Cc1cccc(C(O)CNC(=O)C2CCN(C(=O)Cn3c(=O)sc4ccc(Cl)cc43)CC2)n1` (stereo unspecified) [FR-235208] gave a Cmax in data set [8] of 15.7 µg/mL. Further, the IC50 in data set [9] was determined as 3.3 nM.
Take `NS(=O)(=O)c1ccc(CCNC(=O)C2CCN(C(=O)Cn3c(=O)sc4ccc(Cl)cc43)CC2)cc1`: the inhibition in data set [5] is 19.5%; in data set [3], 44.7%; in data set [4], 102%; in [1], 88.8%. The IC50 in [6] was 6.1 nM; in [7], 9 nM.
On to `CC(=O)c1cccc(NC(=O)C2CCN(C(=O)Cn3c(=O)sc4ccc(Cl)cc43)CC2)c1`, for which the inhibition turned out to be 41.5% in data set [5], 76.8% in data set [3], 100% in data set [4] and 98.5% in data set [1]. Moreover, the values for the IC50 in [6] and in data set [7] were 0.59 nM and 2 nM, respectively.
Consider `O=C(Nc1ccc(Oc2ccccc2)cc1)C1CCN(C(=O)Cn2c(=O)sc3ccc(Cl)cc32)CC1`, for which the inhibition in data set [5] was determined as 53.2%; in data set [3] it was 94.5%; in data set [4] it was 97.2%; in [1], 99.4%. In addition, the IC50 in data set [6] was determined as 1.5 nM; in data set [7] it was 0.85 nM.
Turning to `O=C(Nc1cccc2ccccc12)C1CCN(C(=O)Cn2c(=O)sc3ccc(Cl)cc32)CC1`, the inhibition in [5] worked out at 49.3%; in data set [3], 83.4%; in [4], 108%; in [1], 99%. Moreover, the results for the IC50 in data set [6] and in data set [7] were 17 nM and 0.71 nM, respectively.
Turning to `Cc1ccc2nc(NC(=O)C3CCN(C(=O)Cn4c(=O)sc5ccc(Cl)cc54)CC3)sc2c1`, the inhibition in [5] was 31.9%; in [3] it was 68.1%; in data set [4], 107%; in data set [1] it was 86.6%. Besides, the concentration for half-maximal inhibition (IC50) in [6] was found to be 10 nM; in data set [7] it was 2.8 nM.
`O=C(NCC(O)c1ccccc1)C1CCN(C(=O)Cn2c(=O)sc3ccc(Cl)cc32)CC1` (stereo unspecified): the inhibition in data set [5] was found to be 47.8%; in data set [3], 79.4%; in data set [4], 108%; in data set [1] it was 97.1%. For the same compound, the IC50 in data set [6] was determined as 1.2 nM; in data set [7] it was 1.1 nM.
For the compound `O=C(Nc1nc2cc(Cl)ccc2o1)C1CCN(C(=O)Cn2c(=O)sc3ccc(Cl)cc32)CC1`, the inhibition was found to be 16.5% in data set [5], 68.4% in data set [3], 86.2% in [4] and 102% in [1]. Further, the IC50 in [6] was determined as 3.8 nM; in data set [7], 4.7 nM.
With `O=C(NCCOS(=O)(=O)O)C1CCN(C(=O)Cn2c(=O)sc3ccc(Cl)cc32)CC1`, in data set [4], the inhibition was found to be 19.9%.
For the compound `Cc1cc(O)ccc1NC(=O)C1CCN(C(=O)Cn2c(=O)sc3ccc(Cl)cc32)CC1`, the inhibition in [5] came out at 5.6%; in data set [3], 41.1%; in [4], 95%; in data set [1] it was 91.4%. Further, the IC50 in data set [6] was determined as 4.7 nM; in data set [7], 1.4 nM.
For `O=C(Nc1ccc(CCO)cc1)C1CCN(C(=O)Cn2c(=O)sc3ccc(Cl)cc32)CC1`, the inhibition amounted to 28.7% in [5], 74.6% in data set [3], 84.7% in [4] and 101% in data set [1]. For the same compound, the results for the IC50 in [6] and in [7] were 1.7 nM and 2.9 nM, respectively.

Values taken from ChEMBL document CHEMBL1135282, “Novel potent antagonists of human neuropeptide Y Y5 receptor. Part 1: 2-oxobenzothiazolin-3-acetic acid derivatives” (Bioorg Med Chem Lett, 2002).
